# Laboratory results reported in PubChem BioAssay (NCI).
#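 These data come from cells grown in 96-well plates and exposed to compound for 48 hours at five concentrations. TGI denotes the concentration required for complete inhibition of growth.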
# Tests used:
# Assay in all cases: NCI tumour cell line growth inhibition, 48 h
# MALME-3M melanoma = tested on: MALME-3M melanoma
# OVCAR-4 ovarian = tested on: OVCAR-4 ovarian
# HCT-116 colon = tested on: HCT-116 colon
# HOP-92 NSCLC = tested on: HOP-92 NSCLC
# SK-MEL-2 melanoma = tested on: SK-MEL-2 melanoma
# SF-268 CNS = tested on: SF-268 CNS
# NCI-H460 lung = tested on: NCI-H460 lung
# HS 578T breast = tested on: HS 578T breast
# OVCAR-8 ovarian = tested on: OVCAR-8 ovarian
# PC-3 prostate = tested on: PC-3 prostate
# SR leukemia = tested on: SR leukemia
# CCRF-CEM leukemia = tested on: CCRF-CEM leukemia
# EKVX NSCLC = tested on: EKVX NSCLC
# ACHN renal = tested on: ACHN renal
SMILES,TGI (MALME-3M melanoma) [µM],TGI (OVCAR-4 ovarian) [µM],TGI (HCT-116 colon) [µM],TGI (HOP-92 NSCLC) [µM],TGI (SK-MEL-2 melanoma) [µM],TGI (SF-268 CNS) [µM],TGI (NCI-H460 lung) [µM],TGI (HS 578T breast) [µM],TGI (OVCAR-8 ovarian) [µM],TGI (PC-3 prostate) [µM],TGI (SR leukemia) [µM],TGI (CCRF-CEM leukemia) [µM],TGI (EKVX NSCLC) [µM],TGI (ACHN renal) [µM]
O=C(c1cc(Cl)cc(Cl)c1)N1CCN(C(=O)c2cc(Cl)cc(Cl)c2)C1=S,25.5,38.4,30,22.4,34.1,37.6,37.2,> 100,44.5,30.3,11.3,21.4,31.9,29.6
Cc1cc(C)nc(NS(=O)(=O)c2ccc(NNC(=O)c3cccc4c(=O)c5ccccc5[nH]c34)cc2)n1,> 100,> 100,> 100,73.8,76.5,> 100,> 100,> 100,> 100,> 100,> 100,> 100,98.9,> 100
CCOC(=O)c1cc(C2(O)CCN(CC(C)CC)C2=O)c(-c2cc(C)no2)[nH]1 (stereo unspecified),> 100,> 100,> 100,> 100,> 100,> 100,> 100,> 100,> 100,> 100,> 100,> 100,> 100,
CC(C)(C)c1cc(C(=O)/C=C/C=C/c2ccccc2)cc(C(C)(C)C)c1O,> 100,> 100,44.9,> 100,34.5,> 74,31.5,> 100,58.5,> 79.9,13.4,15.5,> 100,> 100
Cn1c(=O)c2c(no[n+]2[O-])c2ccccc21,29,45.5,30.2,52.2,28.7,59.2,35.3,62.2,28.3,71.8,52.3,48.9,46.1,83
CCOC(=O)NC1CN2CCC1CC2 (stereo unspecified),> 100,> 100,> 100,> 100,> 100,> 100,> 100,> 100,> 100,> 100,> 100,> 100,> 100,> 100
CCCCCC(/C=C/C1CCC(=O)C1CC#C[Si](C)(C)C)OCc1ccccc1 (stereo unspecified),37.8,> 71.8,34.9,17.2,35,29.4,30.7,39.6,31.1,> 64.1,> 57.4,17.2,39.8,31.6
CCOC(=O)C1=C(N)Oc2ccc(Br)cc2C1C(C#N)C(=O)OCC (stereo unspecified),41,44.8,42.2,37,39.1,38.5,> 100,61,45.1,43.4,> 100,44.5,> 100,33.6
O=C(O)CCN(CCC(=O)O)c1ccc(/C=C2\SC(=S)NC2=O)cc1,> 100,> 100,> 100,> 100,> 100,> 100,> 100,> 100,> 100,> 100,> 100,> 100,> 100,> 100
C[C@H]1C2Cc3cc(N)ccc3[C@@]1(C)CCN2CCc1ccccc1,54,> 100,> 100,90.9,> 100,> 100,> 100,> 100,> 100,49.9,> 100,> 100,> 100,> 100
Cc1ccc(-c2cc(-c3ccc(Cl)cc3)nc(/N=C3\C(=O)N(CN4CCOCC4)c4ccc(Cl)cc43)n2)cc1,> 100,> 100,40.9,62.2,39.9,88.1,81.2,> 100,55.4,> 100,> 100,> 100,89.4,48.5
O=C(NC(CO)Cc1ccc(Oc2cc(CC(CO)NC(=O)OCc3ccccc3)ccc2OC(=O)OCc2ccccc2)cc1)OCc1ccccc1 (stereo unspecified),31.5,65.3,40.7,54.3,58.3,88.9,38.9,28.4,40.6,32.7,60.8,> 100,47.8,62.7
CC1(C)OC(=C(C#N)C#N)C(C#N)=C1/C=C/c1ccncc1,6.31,8.91,3.46,5.17,6.44,6.5,22.4,17.9,3.29,4.62,4.74,2.4,5.46,3.39
